# Data from patent US4420481A, “Use of piperazine compounds as immunopotentiating agents” (Mitsuitoatsu Chemicals Inc., priority 1980, dated 1983).
# Assays:
# Sarcoma 180 [1] = assay: Test 4: Test of Antitumor Effect to Sarcoma 180 by Oral Administration; assay type: in vivo, ICR female mice; conditions: for N: number of living mice: 100 mg/Kg oral; for D: average diameter of tumor: 100 mg/Kg oral once a day, 10 days
# Method: To the control group, a physiological saline solution was similarly administered. The dose of the compound was 100 mg per Kg of the body weight. The diameter D (mm) of the tumor was measured, and the average value and the number N of the living mice were determined to obtain results shown in Table 4.
# adjuvant arthritis = assay: Test 2: Adjuvant Arthritis Test; assay type: in vivo, SD male rats; conditions: rat, 5 mg/Kg subcutaneous, 9 times, left hind leg, * P<0.05, ** P<0.01
# delayed hypersensitivity = assay: Test 1: Test of Reinforcement of Delayed Hypersensitivity; assay type: in vivo, ICR male mice; conditions: mouse, 50 mg/Kg oral, 24 hours after challenge; * P<0.05, ** P<0.01; control 29.6 ± 1.9
# Source text: Various test systems using animals have been proposed for determining the immunopotensiative action. Results of the test of reinforcement of the delayed hypersensitivity, which is a typical test among these tests, will now be described.
# This system was used for the test of reinforcement of the delayed hypersensitivity.
# One groups of eight ICR male mice, each having a body weight of about 30 g, were used for the test.
# Sensitization was effected by coating a 7% solution of picryl chloride in a 4/1 mixture of olive oil and acetone on the shaved abdomen of the mouse.
# Simultaneously with sensitization, a solution or suspension of the compound of the present invention in a 0.2% solution of carboxymethyl cellulose in a physiological saline solution was orally administered to the mouse at a dose of 50 mg per Kg of the body weight. To the control group, a 0.2% carboxymethyl cellulose solution in a physiological saline solution was similarly administered.
# The delayed hypersensitivity was challenged 7 days after sensitization by gripping the ear of the mouse by a forceps wrapped with a felt impregnated with a 1% solution of picryl chloride in olive oil and coating the ear with the solution. The thickness of the ear was measured before challenging and 24 hours after challenging and the ratio of increase of the thickness (average value of both the ears in eight mice±standard deviation) was obtained as shown in Table 1.
# For comparison, the test was similarly carried out by using Levamisol hydrochloride, and the obtained results are shown in Table 1. F.t tests were carried out. The group in which the test result was significant at a level of P<0.05 was marked by *, and the group in which the test result was significant at a level of P<0.01 ws marked by **.
# Sarcoma 180 [2] = assay: Test 5: Test of Carcinostatic Effect to Sarcoma 180 by Subcutaneous Administration; assay type: in vivo, ICR female mice; conditions: 20 mg/Kg subcutaneous
# Method: To the control group, a physiological saline solution was similarly administered. […] The diameter D (mm) of the tumor was measured, and the average value and the number N of the living mice were determined to obtain results shown in Table 4.
# EL-4 leukemic cells = assay: Test 3: In-Vitro Test of Inhibition of Growth of Cancer Cell by Macrophage; assay type: cell-based; conditions: 8 mg/Kg intraperitoneal to mice, macrophages collected after 4 days, with EL-4 cells; control 80.2
# Method: The results of the test of the action of the effective ingredient of the present invention on the macrophage will now be described with reference to the following Test 3. More specifically, the separated macrophage and EL-4 leukemic cell were mixed and cultured, and ^3 H-thymidine was added to a culture medium and the quantity of ^3 H-thymidine incorporated into the EL-4 cell was determined to examine the activity of the macrophage. When the macrophage is activated by administration of the effective ingredient of the present invention, inhibition of the growth of EL-4 cell, that is, phagocytosis of the cancer cell by the macrophage, is observed. Accordingly, if the take-in amount of ^3 H-thymidine is measured and this amount is reduced, it is confirmed that the macrophage has been activated. […] The dose was 8 mg per Kg of the body weight. To the control group, a physiological saline solution was similarly administered. After passage of 4 days, exuded abdominal cells were collected and deposited on a plastic Petri dish to collect microphages. Then, 1×10^6 of so obtained macrophages and 1×10^5 of EL-4 leukemic cells of C57 BL/6J mouse were mixed with cultured in an RPM1 1640 culture medium to which 10% of bovine embryo serum was added (at 37° C. in the presence of 5% of CO2) for 24 hours. Then, 0.1μ Ci of ^3 H-thymidine was added and culturing was further conducted for 16 hours. Cells were collected on a filter paper from the culture medium and the amount of ^3 H-thymidine taken in was determined by a liquid scintillation counter. […] For comparison, the test was similarly carried out by using Levamisol hydrochloride. Results
smiles,measurement,setting,value
O=C(N1CCCCC1)N1CCN(c2ccccc2)CC1 [drawing 18],N: number of living mice,"Sarcoma 180 [1]; 0 weeks, control 6",6
same,D: average diameter of tumor,"Sarcoma 180 [1]; 2 weeks, control 10.6",6.2 mm
same,N: number of living mice,"Sarcoma 180 [1]; 2 weeks, control 6",6
same,D: average diameter of tumor,"Sarcoma 180 [1]; 4 weeks, control 15.2",3.8 mm
same,N: number of living mice,"Sarcoma 180 [1]; 4 weeks, control 6",6
same,D: average diameter of tumor,"Sarcoma 180 [1]; 6 weeks, control 22.4",4.4 mm
same,N: number of living mice,"Sarcoma 180 [1]; 6 weeks, control 6",6
same,D: average diameter of tumor,"Sarcoma 180 [1]; 8 weeks, control 31.5",5.3 mm
same,N: number of living mice,"Sarcoma 180 [1]; 8 weeks, control 5",6
same,D: average diameter of tumor,"Sarcoma 180 [1]; 10 weeks, control 37.6",0 mm
same,N: number of living mice,"Sarcoma 180 [1]; 10 weeks, control 1",6
O=C(N1CCCCC1)N1CCN(c2ccccc2)CC1 [drawing 12],Swelling Ratio (average value ± standard variation),"adjuvant arthritis; 15 days, control 84.4 ± 9.0",39.5 ± 11.7%
same,Swelling Ratio (average value ± standard variation),"adjuvant arthritis; 18 days, control 103.2 ± 9.7",56.1 ± 10.8%
same,Swelling Ratio (average value ± standard variation),"adjuvant arthritis; 21 days, control 107.5 ± 13.3",74.4 ± 13.9%
O=C(N1CCCCC1)N1CCN(c2ccccc2)CC1 [drawing 9],Ratio of Increase of Ear Thickness (average value ± Standard Variation),delayed hypersensitivity,45.0 ± 4.6%
CN1CCN(C(=O)N2CCCCC2)CC1 [drawing 17],N: number of living mice,"Sarcoma 180 [1]; 0 weeks, control 6",6
same,D: average diameter of tumor,"Sarcoma 180 [1]; 2 weeks, control 10.6",6.0 mm
same,N: number of living mice,"Sarcoma 180 [1]; 2 weeks, control 6",6
same,D: average diameter of tumor,"Sarcoma 180 [1]; 4 weeks, control 15.2",4.7 mm
same,N: number of living mice,"Sarcoma 180 [1]; 4 weeks, control 6",6
same,D: average diameter of tumor,"Sarcoma 180 [1]; 6 weeks, control 22.4",4.8 mm
same,N: number of living mice,"Sarcoma 180 [1]; 6 weeks, control 6",6
same,D: average diameter of tumor,"Sarcoma 180 [1]; 8 weeks, control 31.5",3.3 mm
same,N: number of living mice,"Sarcoma 180 [1]; 8 weeks, control 5",6
same,D: average diameter of tumor,"Sarcoma 180 [1]; 10 weeks, control 37.6",0 mm
same,N: number of living mice,"Sarcoma 180 [1]; 10 weeks, control 1",6
CN1CCN(C(=O)N2CCCC2)CC1 [drawing 19],N: number of living mice,"Sarcoma 180 [2]; 0 weeks, control 6",6
same,N: number of living mice,"Sarcoma 180 [2]; 2 weeks, control 6",6
same,D: average diameter of tumor,"Sarcoma 180 [2]; 2 weeks, control 10.8",2.2 mm
same,N: number of living mice,"Sarcoma 180 [2]; 4 weeks, control 6",6
same,D: average diameter of tumor,"Sarcoma 180 [2]; 4 weeks, control 16.6",3.6 mm
same,N: number of living mice,"Sarcoma 180 [2]; 6 weeks, control 6",6
same,D: average diameter of tumor,"Sarcoma 180 [2]; 6 weeks, control 20.3",6.1 mm
same,N: number of living mice,"Sarcoma 180 [2]; 8 weeks, control 4",6
same,D: average diameter of tumor,"Sarcoma 180 [2]; 8 weeks, control 31.2",1.2 mm
same,N: number of living mice,"Sarcoma 180 [2]; 10 weeks, control 1",5
same,D: average diameter of tumor,"Sarcoma 180 [2]; 10 weeks, control 40.5",0 mm
CN1CCN(C(=O)N2CCCC2)CC1 [drawing 7],Ratio of Increase of Ear Thickness (average value ± Standard Variation),delayed hypersensitivity,36.7 ± 2.5%
CN1CCN(C(=O)N2CCCCC2)CC1 [drawing 14],Take-In Ratio of 3H-thymidine (average value),EL-4 leukemic cells,22.6%
CN1CCN(C(=O)N2CCCC2)CC1 [drawing 10],Swelling Ratio (average value ± standard variation),"adjuvant arthritis; 15 days, control 84.4 ± 9.0",54.6 ± 11.3%
same,Swelling Ratio (average value ± standard variation),"adjuvant arthritis; 18 days, control 103.2 ± 9.7",61.7 ± 13.0%
same,Swelling Ratio (average value ± standard variation),"adjuvant arthritis; 21 days, control 107.5 ± 13.3",73.3 ± 14.6%
